Legend:
[1] = tested on: antibodies in sera from SARS patients (sera 1a, 1b, 2, 6, 37, 62, London, SARS-yellow, SARS-green); format: binding, human; parameters: Binding of serum 6 to linear peptides of protein X1 of SARS-CoV Urbani / Binding of serum 37 to linear peptides of protein X1 of SARS-CoV Urbani / Binding of serum 6 to looped/cyclic peptide (PEPSCAN-ELISA) / Binding of serum 37 to looped/cyclic peptide (PEPSCAN-ELISA) / Binding of serum 37 to looped/cyclic peptides of protein X1 of SARS-CoV Urbani / Binding of serum 6 to linear peptides of protein X2 / Binding of serum 37 to linear peptides of protein X2 / Binding of serum 37 to looped/cyclic peptides of protein X2 of SARS-CoV Urbani / Binding of serum 6 to linear peptides of protein M of SARS-CoV Urbani / Binding of serum 37 to linear peptides of protein M of SARS-CoV Urbani / Binding of serum 6 to looped/cyclic peptides of protein M of SARS-CoV Urbani / Binding of serum 37 to looped/cyclic peptides of protein M of SARS-CoV Urbani / Binding of serum 6 to linear peptides of protein X3 of SARS-CoV Urbani / Binding of serum 37 to linear peptides of protein X3 of SARS-CoV Urbani / Binding of serum 37 to looped/cyclic peptides of protein X3 of SARS-CoV Urbani / Binding of serum 6 to linear peptides of protein X4 of SARS-CoV Urbani / Binding of serum 37 to linear peptides of protein X4 of SARS-CoV Urbani / Binding of serum 37 to looped/cyclic peptides of protein X4 of SARS-CoV Urbani / Binding of serum 6 to linear peptides of protein X5 of SARS-CoV Urbani / Binding of serum 37 to linear peptides of protein X5 of SARS-CoV Urbani / Binding of serum 37 to looped/cyclic peptides of protein X5 of SARS-CoV Urbani / Binding of serum 6 to linear peptides of protein N of SARS-CoV Urbani / Binding of serum 37 to linear peptides of protein N of SARS-CoV Urbani / Binding of serum 6 to linear peptide (PEPSCAN-ELISA) / Binding of serum 1a to looped/cyclic peptides of protein N of SARS-CoV Urbani / Binding of serum 1b to looped/cyclic peptides of protein N of SARS-CoV Urbani / Binding of serum 2 to looped/cyclic peptides of protein N of SARS-CoV Urbani / Binding of serum 6 to looped/cyclic peptides of protein N of SARS-CoV Urbani / Binding of serum 37 to looped/cyclic peptides of protein N of SARS-CoV Urbani / Binding of serum 62 to looped/cyclic peptides of protein N of SARS-CoV Urbani / Binding of serum London to looped/cyclic peptides of protein N of SARS-CoV Urbani / Binding of serum SARS-green to looped/cyclic peptides of protein N of SARS-CoV Urbani: unit not given here
[2] = tested on: rabbit serum obtained by immunizing a rabbit with the SARS-CoV strain Frankfurt 1; format: binding; parameters: Binding of a rabbit serum to linear peptides / Binding of a rabbit serum to looped peptides / Rabbit serum linear peptides / Rabbit serum looped peptides / Binding of a rabbit serum to linear peptides of protein N of SARS-CoV Urbani (Rabbit serum linear peptides) / Binding of a rabbit serum to looped/cyclic peptides of protein N of SARS-CoV Urbani (Rabbit serum looped peptides): unit not given here

RTLSYYKLGASQRVG
Binding of serum 1a to linear peptides of protein M of SARS-CoV Urbani [1]: 0.7 | Binding of serum 1a to looped/cyclic peptides of protein M of SARS-CoV Urbani [1]: 0.8 | Binding of serum 1b to linear peptides of protein M of SARS-CoV Urbani [1]: 0.6 | Binding of serum 1b to looped/cyclic peptides of protein M of SARS-CoV Urbani [1]: 0.5 | Binding of serum 2 to linear peptides of protein M of SARS-CoV Urbani [1]: 0.7 | Binding of serum 2 to looped/cyclic peptides of protein M of SARS-CoV Urbani [1]: 0.7 | Binding of serum 6 to linear peptides of protein M of SARS-CoV Urbani [1]: 0.8 | Binding of serum 6 to looped/cyclic peptides of protein M of SARS-CoV Urbani [1]: 1.5 | Binding of serum 37 to linear peptides of protein M of SARS-CoV Urbani [1]: 0.5 | Binding of serum 62 to linear peptides of protein M of SARS-CoV Urbani [1]: 0.5 | Binding of serum London to linear peptides of protein M of SARS-CoV Urbani [1]: 0.3 | Binding of serum London to looped/cyclic peptides of protein M of SARS-CoV Urbani [1]: 1.0 | Binding of serum SARS-green to linear peptides of protein M of SARS-CoV Urbani [1]: 0.5 | Binding of serum SARS-green to looped/cyclic peptides of protein M of SARS-CoV Urbani [1]: 0.4 | Binding of serum SARS-yellow to linear peptides of protein M of SARS-CoV Urbani [1]: 0.4 | Binding of serum SARS-yellow to looped/cyclic peptides of protein M of SARS-CoV Urbani [1]: 0.8 | Rabbit serum linear peptides [2]: 0.5 | Rabbit serum looped peptides [2]: 1.0

HRWHTMVQTCTPNVT
Binding of serum 1a to linear peptides of protein X5 of SARS-CoV Urbani [1]: 0.7 | Binding of serum 1a to looped/cyclic peptides of protein X5 of SARS-CoV Urbani [1]: 0.6 | Binding of serum 1b to linear peptides of protein X5 of SARS-CoV Urbani [1]: 0.6 | Binding of serum 1b to looped/cyclic peptides of protein X5 of SARS-CoV Urbani [1]: 0.5 | Binding of serum 2 to linear peptides of protein X5 of SARS-CoV Urbani [1]: 0.8 | Binding of serum 2 to looped/cyclic peptides of protein X5 of SARS-CoV Urbani [1]: 0.5 | Binding of serum 6 to linear peptides of protein X5 of SARS-CoV Urbani [1]: 0.5 | Binding of serum 6 to looped/cyclic peptides of protein X5 of SARS-CoV Urbani [1]: 0.3 | Binding of serum 37 to linear peptides of protein X5 of SARS-CoV Urbani [1]: 0.7 | Binding of serum 37 to looped/cyclic peptides of protein X5 of SARS-CoV Urbani [1]: 0.3 | Binding of serum 62 to linear peptides of protein X5 of SARS-CoV Urbani [1]: 0.8 | Binding of serum 62 to looped/cyclic peptides of protein X5 of SARS-CoV Urbani [1]: 0.3 | Binding of serum London to linear peptides of protein X5 of SARS-CoV Urbani [1]: 0.7 | Binding of serum London to looped/cyclic peptides of protein X5 of SARS-CoV Urbani [1]: 0.1 | Binding of serum SARS-green to linear peptides of protein X5 of SARS-CoV Urbani [1]: 0.5 | Binding of serum SARS-green to looped/cyclic peptides of protein X5 of SARS-CoV Urbani [1]: 0.3 | Binding of serum SARS-yellow to linear peptides of protein X5 of SARS-CoV Urbani [1]: 0.5 | Binding of serum SARS-yellow to looped/cyclic peptides of protein X5 of SARS-CoV Urbani [1]: 0.2 | Rabbit serum linear peptides [2]: 0.7 | Rabbit serum looped peptides [2]: 0.3

SATKIIALNKRWQLA
Binding of serum 1a to linear peptides of protein X1 of SARS-CoV Urbani [1]: 0.8 | Binding of serum 1a to looped/cyclic peptide (PEPSCAN-ELISA) [1]: 1.2 | Binding of serum 1b to linear peptides of protein X1 of SARS-CoV Urbani [1]: 0.6 | Binding of serum 1b to looped/cyclic peptide (PEPSCAN-ELISA) [1]: 0.8 | Binding of serum 2 to linear peptides of protein X1 of SARS-CoV Urbani [1]: 0.6 | Binding of serum 2 to looped/cyclic peptide (PEPSCAN-ELISA) [1]: 1.2 | Binding of serum 6 to linear peptides of protein X1 of SARS-CoV Urbani [1]: 0.7 | Binding of serum 6 to looped/cyclic peptide (PEPSCAN-ELISA) [1]: 0.9 | Binding of serum 37 to linear peptides of protein X1 of SARS-CoV Urbani [1]: 0.7 | Binding of serum 37 to looped/cyclic peptide (PEPSCAN-ELISA) [1]: 1.0 | Binding of serum 62 to linear peptides of protein X1 of SARS-CoV Urbani [1]: 0.8 | Binding of serum 62 to looped/cyclic peptide (PEPSCAN-ELISA) [1]: 1.5 | Binding of serum London to linear peptides of protein X1 of SARS-CoV Urbani [1]: 0.4 | Binding of serum London to looped/cyclic peptide (PEPSCAN-ELISA) [1]: 0.5 | Binding of serum SARS-green to linear peptides of protein X1 of SARS-CoV Urbani [1]: 0.3 | Binding of serum SARS-green to looped/cyclic peptide (PEPSCAN-ELISA) [1]: 1.0 | Binding of serum SARS-yellow to linear peptides of protein X1 of SARS-CoV Urbani [1]: 0.5 | Binding of serum SARS-yellow to looped/cyclic peptide (PEPSCAN-ELISA) [1]: 0.9 | Recognition of the peptide by the rabbit serum [2]: recognized

WQLALYKGFQFICNL
Binding of serum 1a to linear peptides of protein X1 of SARS-CoV Urbani [1]: 0.6 | Binding of serum 1a to looped/cyclic peptide (PEPSCAN-ELISA) [1]: 0.6 | Binding of serum 1b to linear peptides of protein X1 of SARS-CoV Urbani [1]: 0.2 | Binding of serum 1b to looped/cyclic peptide (PEPSCAN-ELISA) [1]: 0.3 | Binding of serum 2 to linear peptides of protein X1 of SARS-CoV Urbani [1]: 0.4 | Binding of serum 2 to looped/cyclic peptide (PEPSCAN-ELISA) [1]: 0.4 | Binding of serum 6 to linear peptides of protein X1 of SARS-CoV Urbani [1]: 0.5 | Binding of serum 6 to looped/cyclic peptide (PEPSCAN-ELISA) [1]: 1.3 | Binding of serum 37 to linear peptides of protein X1 of SARS-CoV Urbani [1]: 0.3 | Binding of serum 37 to looped/cyclic peptide (PEPSCAN-ELISA) [1]: 0.5 | Binding of serum 62 to linear peptides of protein X1 of SARS-CoV Urbani [1]: 0.4 | Binding of serum 62 to looped/cyclic peptide (PEPSCAN-ELISA) [1]: 0.5 | Binding of serum London to linear peptides of protein X1 of SARS-CoV Urbani [1]: 0.2 | Binding of serum London to looped/cyclic peptide (PEPSCAN-ELISA) [1]: 1.5 | Binding of serum SARS-green to linear peptides of protein X1 of SARS-CoV Urbani [1]: 0.3 | Binding of serum SARS-green to looped/cyclic peptide (PEPSCAN-ELISA) [1]: 0.3 | Binding of serum SARS-yellow to linear peptides of protein X1 of SARS-CoV Urbani [1]: 0.4 | Binding of serum SARS-yellow to looped/cyclic peptide (PEPSCAN-ELISA) [1]: 0.5 | Binding of a rabbit serum to linear peptides [2]: 0.5 | Binding of a rabbit serum to looped peptides [2]: 0.6

VFQSATKIIALNKRW
Binding of serum 1a to linear peptides of protein X1 of SARS-CoV Urbani [1]: 0.8 | Binding of serum 1a to looped/cyclic peptide (PEPSCAN-ELISA) [1]: 0.5 | Binding of serum 1b to linear peptides of protein X1 of SARS-CoV Urbani [1]: 0.6 | Binding of serum 1b to looped/cyclic peptide (PEPSCAN-ELISA) [1]: 0.4 | Binding of serum 2 to linear peptides of protein X1 of SARS-CoV Urbani [1]: 0.6 | Binding of serum 2 to looped/cyclic peptide (PEPSCAN-ELISA) [1]: 0.4 | Binding of serum 6 to linear peptides of protein X1 of SARS-CoV Urbani [1]: 0.6 | Binding of serum 6 to looped/cyclic peptide (PEPSCAN-ELISA) [1]: 0.6 | Binding of serum 37 to linear peptides of protein X1 of SARS-CoV Urbani [1]: 0.7 | Binding of serum 37 to looped/cyclic peptide (PEPSCAN-ELISA) [1]: 0.4 | Binding of serum 62 to linear peptides of protein X1 of SARS-CoV Urbani [1]: 0.8 | Binding of serum 62 to looped/cyclic peptide (PEPSCAN-ELISA) [1]: 0.6 | Binding of serum London to linear peptides of protein X1 of SARS-CoV Urbani [1]: 0.3 | Binding of serum London to looped/cyclic peptide (PEPSCAN-ELISA) [1]: 0.3 | Binding of serum SARS-green to linear peptides of protein X1 of SARS-CoV Urbani [1]: 0.2 | Binding of serum SARS-green to looped/cyclic peptide (PEPSCAN-ELISA) [1]: 0.2 | Binding of serum SARS-yellow to linear peptides of protein X1 of SARS-CoV Urbani [1]: 0.5 | Binding of serum SARS-yellow to looped/cyclic peptide (PEPSCAN-ELISA) [1]: 0.2 | Recognition of the peptide by the rabbit serum [2]: recognized

EGNSPFHPLADNKFA
Rabbit serum linear peptides [2]: 0.7 | Rabbit serum looped peptides [2]: 0.7

TLGSITAQPVKIDNA
Binding of a rabbit serum to linear peptides [2]: 0.8 | Binding of a rabbit serum to looped peptides [2]: 0.4

GTITVEELKQLLEQW
Recognition of the peptide by the rabbit serum [2]: recognized

IGAVIIRGHLRMAGH
Rabbit serum linear peptides [2]: 0.3 | Rabbit serum looped peptides [2]: 0.8

KQLLEQWNLVIGFLP
Rabbit serum linear peptides [2]: 0.0 | Rabbit serum looped peptides [2]: 0.1

ARCWYLHEGHQTAAF
Rabbit serum linear peptides [2]: 0.3 | Rabbit serum looped peptides [2]: 0.6

TVHATATIPLQASLP
Binding of a rabbit serum to linear peptides [2]: 0.4 | Binding of a rabbit serum to looped peptides [2]: 0.5

IRGHLRMAGHPLGRC
Rabbit serum linear peptides [2]: 1.2 | Rabbit serum looped peptides [2]: 0.4

RGHLRMAGHPLGRCD
Rabbit serum linear peptides [2]: 0.0 | Rabbit serum looped peptides [2]: 0.3

VIGAVIIRGHLRMAG
Rabbit serum linear peptides [2]: 1.5 | Rabbit serum looped peptides [2]: 0.6

AVIIRGHLRMAGHPL
Rabbit serum linear peptides [2]: 0.3 | Rabbit serum looped peptides [2]: 0.6

FAGTHITMTTVYHIT
Binding of a rabbit serum to linear peptides [2]: 0.6 | Binding of a rabbit serum to looped peptides [2]: 0.4

GAVIIRGHLRMAGHP
Rabbit serum linear peptides [2]: 0.8 | Rabbit serum looped peptides [2]: 0.5

WYLHEGHQTAAFRDV
Rabbit serum linear peptides [2]: 0.3 | Rabbit serum looped peptides [2]: 0.0

VQQELYSPLFLTVAA
Rabbit serum linear peptides [2]: 0.5 | Rabbit serum looped peptides [2]: 0.2

RCWYLHEGHQTAAFR
Rabbit serum linear peptides [2]: 0.9 | Rabbit serum looped peptides [2]: 0.4
